US10730863B2, “Bridged bicyclic compounds as farnesoid X receptor modulators” (BRISTOL-MYERS SQUIBB COMPANY, priority 2017, dated 2020)

Target: FXR (Homo sapiens (Human), UniProt Q96RI1)
Assay: FXR EC50 (FXR agonist activity reported with each example)
Assay type: cell-based

Chain of FXR (Q96RI1 262-486): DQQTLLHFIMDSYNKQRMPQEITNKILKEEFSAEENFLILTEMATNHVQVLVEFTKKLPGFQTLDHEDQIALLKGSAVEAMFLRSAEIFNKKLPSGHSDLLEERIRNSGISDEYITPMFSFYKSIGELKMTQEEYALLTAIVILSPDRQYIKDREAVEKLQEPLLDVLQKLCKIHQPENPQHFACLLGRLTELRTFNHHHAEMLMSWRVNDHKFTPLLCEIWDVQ

SMILES	EC50 [nM]
O=C(O)c1ccnc(OCC23CCC(OCc4c(-c5c(Cl)cccc5Cl)noc4C4CC4)(CC2)CC3)c1 [Example 111, 2-((4-((5-cyclopropyl-3-(2,6-dichlorophenyl)isoxazol-4-yl)methoxy)bicyclo[2.2.2]octan-1-yl)methoxy)isonicotinic acid]	110
O=C(O)c1cncc(OCC23CCC(OCc4c(-c5c(Cl)cccc5Cl)noc4C4CC4)(CC2)CC3)n1 [Example 112, 6-((4-((5-cyclopropyl-3-(2,6-dichlorophenyl)isoxazol-4-yl)methoxy)bicyclo[2.2.2]octan-1-yl)methoxy)pyrazine-2-carboxylic acid]	690
O=C(O)c1cccc(OCC23CCC(OCc4c(-c5c(Cl)cncc5Cl)noc4C4CC4)(CC2)CC3)n1 [Example 113, 6-((4-((5-cyclopropyl-3-(3,5-dichloropyridin-4-yl)isoxazol-4-yl)methoxy)bicyclo[2.2.2]octan-1-yl)methoxy)picolinic acid]	92
O=C(O)c1ccc(OCC23CCC(OCc4c(-c5c(Cl)cncc5Cl)noc4C4CC4)(CC2)CC3)nc1 [Example 114, 6-((4-((5-cyclopropyl-3-(3,5-dichloropyridin-4-yl)isoxazol-4-yl)methoxy)bicyclo[2.2.2]octan-1-yl)methoxy)nicotinic acid]	140
O=C(O)c1ccc2cc(OCC34CCC(OCc5c(-c6c(Cl)cncc6Cl)noc5C5CC5)(CC3)CC4)ccc2n1 [Example 115, 6-((4-((5-cyclopropyl-3-(3,5-dichloropyridin-4-yl)isoxazol-4-yl)methoxy)bicyclo[2.2.2]octan-1-yl)methoxy)quinoline-2-carboxylic acid]	52
O=C(O)Cc1ccccc1OCC12CCC(OCc3c(-c4c(Cl)cccc4Cl)noc3C3CC3)(CC1)CC2 [Example 116, 2-(2-((4-((5-cyclopropyl-3-(2,6-dichlorophenyl)isoxazol-4-yl)methoxy)bicyclo[2.2.2]octan-1-yl)methoxy)phenyl)acetic acid]	900
NC(=O)c1cccc(OCC23CCC(OCc4c(-c5c(Cl)cccc5Cl)noc4C4CC4)(CC2)CC3)n1 [Example 117, 6-((4-((5-cyclopropyl-3-(2,6-dichlorophenyl)isoxazol-4-yl)methoxy)bicyclo[2.2.2]octan-1-yl)methoxy)picolinamide]	310
O=C(O)c1cnc(OCC23CCC(OCc4c(-c5c(Cl)cncc5Cl)noc4C4CC4)(CC2)CC3)c(F)c1 [Example 118, 6-((4-((5-cyclopropyl-3-(3,5-dichloropyridin-4-yl)isoxazol-4-yl)methoxy)bicyclo[2.2.2]octan-1-yl)methoxy)-5-fluoronicotinic acid]	33
COc1cncc(Cl)c1-c1noc(C2CC2)c1COC12CCC(COc3cc(C)c(C(=O)O)cn3)(CC1)CC2 [Example 119, 6-((4-((3-(3-chloro-5-methoxypyridin-4-yl)-5-cyclopropylisoxazol-4-yl)methoxy)bicyclo[2.2.2]octan-1-yl)methoxy)-4-methylnicotinic acid]	120
COc1cncc(Cl)c1-c1noc(C2CC2)c1COC12CCC(COc3ccc(C)c(C(=O)O)n3)(CC1)CC2 [Example 120, 6-((4-((3-(3-chloro-5-methoxypyridin-4-yl)-5-cyclopropylisoxazol-4-yl)methoxy)bicyclo[2.2.2]octan-1-yl)methoxy)-3-methylpicolinic acid]	2300
O=C(O)c1ccc(F)c(C(O)C23CCC(OCc4c(-c5c(Cl)cccc5Cl)noc4C4CC4)(CC2)CC3)c1 (stereo not drawn) [Example 121, 3-((4-((5-cyclopropyl-3-(2,6-dichlorophenyl)isoxazol-4-yl)methoxy)bicyclo[2.2.2]octan-1-yl)(hydroxy)methyl)-4-fluorobenzoic acid]	1500
O=C(O)c1cc(F)c2nc(C(O)C34CCC(OCc5c(-c6c(Cl)cccc6Cl)noc5C5CC5)(CC3)CC4)sc2c1 (stereo not drawn) [Example 122, 2-((4-((5-cyclopropyl-3-(2,6-dichlorophenyl)isoxazol-4-yl)methoxy)bicyclo[2.2.2]octan-1-yl)(hydroxy)methyl)-4-fluorobenzo[d]thiazole-6-carboxylic acid]	1000
